PMC5626781, “A Potent Tartrate Resistant Acid Phosphatase Inhibitor to Study the Function of TRAP in Alveolar Macrophages” (Scientific Reports, 2017)

Tested on: RAW264.7 macrophages
Test: Transwell migration, collagen-coated membrane
Format: cell-based, mouse
Details: AubipyOMe 80 nM, with or without RANKL 200 ng/ml
Method: Migration of RAW264.7 macrophages was assessed using a transwell-culturing system with inserts (Sigma-Aldrich) coated with osteopontin (10 μg/ml, R&D). Bovine collagen-coated inserts (10 μg/ml, Advanced Biometrix, Carlsbad, USA) were used as matrix control. Cells were incubated with or without RANKL (200 ng/ml) for 72 hours to induce TRAP activity or not[75], in the presence or absence of AubipyOMe (80 nM) in quadruplicate. The previously described TRAP inhibitor 5-PNA (100 μM) was used as selective positive control for TRAP inhibition[15],[23]. The number of cells migrated to the lower well, including dead cells, was calculated relative to control cells and individual experiments were done at least six times. […]
Transwell experiment to assess macrophage migration
Migration of RAW264.7 macrophages was assessed using a transwell-culturing system with inserts (Sigma-Aldrich) coated with osteopontin (10 µg/ml, R&D). Bovine collagen-coated inserts (Advanced Biometrix, Carlsbad, USA) were used as a matrix control. […] The number of cells migrated to the lower well, including dead cells, was calculated relative to control cells and individual experiments were done at least six times. […]

COc1ccnc(-c2cc(OC)ccn2)c1.F[P-](F)(F)(F)(F)F.[Cl][Au+][Cl] [AubipyOMe, [Au(4,4′-dimethoxy-2,2′-bipyridine)Cl2][PF6]] was tested, and the “migration through collagen-coated membrane” value was “no effect”.
